# Entries after “also recorded” stand apart in the source; their conditions may differ.
# B1: IL-27: pleiotropic cytokine, heterodimer of IL-27p28 and EBI3 (protein, UniProt Q8NEV9 29-243; Q14213 21-229, looked up)
# Interleukin-27 subunit alpha: FPRPPGRPQLSLQELRREFTVSLHLARKLLSEVRGQAHRFAESHLPGVNLYLLPLGEQLPDVSLTFQAWRRLSDPERLCFISTTLQPFHALLGGLGTQGRWTNMERMQLWAMRLDLRDLQRHLRFQVLAAGFNLPEEEEEEEEEEEEERKGLLPGALGSALQGPAQVSWPQLLSTYRLLHSLELVLSRAVRELLLLSKAGHSVWPLGFPTLSPQP
# Interleukin-27 subunit beta: RKGPPAALTLPRVQCRASRYPIAVDCSWTLPPAPNSTSPVSFIATYRLGMAARGHSWPCLQQTPTSTSCTITDVQLFSMAPYVLNVTAVHPWGSSSSFVPFITEHIIKPDPPEGVRLSPLAERQLQVQWEPPGSWPFPEIFSLKYWIRYKRQGAARFHRVGPIEATSFILRAVRPRARYYVQVAAQDLTDYGELSDWSLPATATMSLGK
# B2: human IL-27: human cytokine IL-27 (protein, UniProt Q8NEV9 29-243; Q14213 21-229, looked up)
# Interleukin-27 subunit alpha: B1 Interleukin-27 subunit alpha
# Interleukin-27 subunit beta: B1 Interleukin-27 subunit beta
# Tests used:
# STING [1] = target: STING (Homo sapiens, UniProt Q86WV6); details: relative to c-di-GMP; cited from earlier work
# Chain of STING (Homo sapiens, UniProt Q86WV6) (Q86WV6 whole entry H232R, species assumed): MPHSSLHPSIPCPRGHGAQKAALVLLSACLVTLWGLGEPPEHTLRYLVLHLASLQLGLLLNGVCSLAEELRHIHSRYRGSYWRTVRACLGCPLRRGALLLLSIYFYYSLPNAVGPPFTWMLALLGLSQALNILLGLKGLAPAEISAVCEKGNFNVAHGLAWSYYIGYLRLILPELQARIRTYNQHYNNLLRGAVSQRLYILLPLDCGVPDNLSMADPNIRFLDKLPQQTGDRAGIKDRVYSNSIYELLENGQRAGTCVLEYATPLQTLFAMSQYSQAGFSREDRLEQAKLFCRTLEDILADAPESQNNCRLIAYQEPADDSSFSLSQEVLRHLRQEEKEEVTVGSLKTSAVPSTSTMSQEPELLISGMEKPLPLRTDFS
# B cells [2] = assay: IL-27 induction in B cells by innate priming followed by CD154 or αCD40 plus IL-21; format: cell-based, mouse; details: then CD154 or αCD40 plus IL-21; for IL-27 secretion / IL-27 induction by primed B cells: priming with CDN, compared with gold-standard LPS priming; for priming of B cells for induction of Il27p28 and Ebi3: 30 μg/ml for 4 h
# STING [3] = details: cited from earlier work
# ILC3s = assay: IL-27 stimulation of in vitro amplified ILC3s, FACS; format: cell-based, C57 mice
# Text: FIG. 5A-5C. […] ILC3s were sort enriched (70%) by surface markers (IL-7R+CD45+Lin−CD117+ST2−) from mesenteric lymph nodes and cultured in the presence of IL-2 and IL-7 (to promote ILC survival) as well as IL-1B plus IL-23 (to promote ILC3 proliferation)—CD117 and ST2 are preferentially, albeit not exclusively, expressed by ILC3s and ILC2s, respectively. After 7 d of culture, ILCs were amplified by >10-fold and accounted for >95% of all cells. After washing to remove cytokines, ILC3s were stimulated with nil, IL-1P/IL-23 (to promote basal IL-22 expression in ILC3s) or IL-27 for 12 h. Cells were analyzed by FACS for expression of (A) T-bet, NKp46 and (B) IL-22, IL-17A and IFNγ, as quantified in (C).
# Analyze the impact of recombinant IL-27 (in vitro) and B-27 cells (in vivo) on ILC3 gene protein expression. Tg(Rorc-cre)34 (JAX #022791) and Rosa26fl-STOP-fl-EYFP (JAX #006148) mice will be crossed to generate TgRorc-creRosa26fl-STOP-fl-EYFP mice, which will allow us to sort purify EYFP+IL-7R+CD45+Lin−CD117+ST2−ILC3s. Sorted ILC3s will be cultured in the presence of IL-7 and IL-2, which promote ILC survival, and stimulated them with recombinant IL-27 for 0 h, 6 h, 12 h and 24 h.
# B cells [4] = details: cited from earlier work
# [5] = system: STAT transcription factors; assay: STAT activation by human IL-27; format: cell-based
# [6] = enriched, in vitro amplified ILC3s from C57 mice, 12 h
molecule,measurement,setting,value
"Nc1ncnc2c1ncn2[C@@H]1O[C@@H]2COP(=O)(O)O[C@H]3[C@@H](O)[C@H](n4cnc5c(N)ncnc54)O[C@@H]3COP(=O)(O)O[C@H]2[C@H]1O [c-di-AMP, 3′-5′ c-di-AMP]",affinity to STING,STING [1],much lower affinity to STING than c-di-GMP
same,IL-27 secretion / IL-27 induction by primed B cells,B cells [2],inefficient
"Nc1nc2c(ncn2[C@@H]2O[C@@H]3COP(=O)(O)O[C@H]4[C@@H](O)[C@H](n5cnc6c(=O)[nH]c(N)nc65)O[C@@H]4COP(=O)(O)O[C@H]3[C@H]2O)c(=O)[nH]1 [c-di-GMP, 3′-5′ c-di-GMP]",priming of B cells for induction of Il27p28 and Ebi3,B cells [2],sufficient
same,IL-27 secretion / IL-27 induction by primed B cells,B cells [2],at the same magnitude as those of IL-27 induced by the gold-standard condition
cyclic GMP-AMP [cGAMP],priming of B cells for induction of Il27p28 and Ebi3,B cells [2],sufficient
same,IL-27 secretion / IL-27 induction by primed B cells,B cells [2],prime B cells for IL-27 induction by CD154; also recorded: at the same magnitude as those of IL-27 induced by the gold-standard condition
"Nc1nc2c(ncn2[C@@H]2O[C@H](CO)[C@@H](O)[C@H]2OP(=O)(O)OC[C@H]2O[C@@H](n3cnc4c(N)ncnc43)[C@H](O)[C@@H]2OP(=O)(O)O)c(=O)[nH]1 [2′5′-GpAp, linear GMP-AMP]",STING activation,STING [3],does not activate STING
same,IL-27 secretion / IL-27 induction by primed B cells,B cells [2],inefficient
B1,IFNγ in ILC3s,ILC3s; [6],did not affect
same,IL-17 in ILC3s,ILC3s; [6],reduced
same,expression of IL-22 in ILC3s,ILC3s; [6],upregulated
same,expression of T-bet in ILC3s,ILC3s; [6],upregulated
same,polarization of ILC3s to express T-bet and IL-22,ILC3s; in vitro,polarizes ILC3s to express T-bet and IL-22; also recorded: can polarize ILC3s in vitro to express T-bet and IL-22
same,"STAT1/STAT3 activation, T-bet expression and IFNγ gene signature in B cells",B cells [4],"induce STAT1/STAT3 activation, T-bet expression, and IFNγ gene signature"
B2,activation of STAT transcription factors,[5],can activate STAT transcription factors
